Laboratory results as given in patent US20200325177A1, “METHODS OF MAKING STREPTOGRAMIN COMPOSITIONS AND THE USE THEREOF” (THE REGENTS OF THE UNIVERSITY OF CALIFORNIA, priority 2017, published 2020).
≈ marks a conversion by molar mass, not a printed value. Like-named read-outs stand apart in the source and are kept apart here.

Columns and labels:
Assay type in all cases: cell-based
[1] = test system: E. faecalis; experiment: MIC, Gram-positive bacteria: E. faecalis; settings: Enterococcus faecalis, column 1, read-out: Minimal Inhibitory Concentration (MIC) E. faecalis
[2] = test system: E. faecium ATCC 35667; experiment: MIC, Gram-positive bacteria: E. faecium ATCC 35667; settings: Enterococcus faecium, ATCC35667, column 2, read-out: Minimal Inhibitory Concentration (MIC) E. faecium ATCC 35667
[3] = test system: E. faecium VRE; vanA; experiment: MIC, Gram-positive bacteria: E. faecium VRE; vanA; settings: Enterococcus faecium, column 3, read-out: Minimal Inhibitory Concentration (MIC) E. faecium VRE
[4] = test system: S. aureus; experiment: MIC, Gram-positive bacteria: S. aureus (strains not named); settings: Staphylococcus aureus, read-out: Minimal Inhibitory Concentration (MIC) S. aureus
[5] = test system: S. aureus Vat A streptogramin; experiment: MIC, Gram-positive bacteria: S. aureus Vat A streptogramin; settings: Staphylococcus aureus, read-out: Minimal Inhibitory Concentration (MIC) S. aureus Vat A streptogramin
[6] = test system: S. aureus Linezolid-resistant; cfr; experiment: MIC, Gram-positive bacteria: S. aureus Linezolid-resistant; cfr; settings: Staphylococcus aureus, column 9, read-out: Minimal Inhibitory Concentration (MIC) S. aureus Linezolid-resistant
[7] = test system: S. pneumoniae; experiment: MIC, Gram-positive bacteria: S. pneumoniae; settings: Streptococcus pneumoniae, column 10, read-out: Minimal Inhibitory Concentration (MIC) S. pneumoniae
[8] = test system: K. pneumoniae multidrug-resistant; experiment: MIC, Gram-negative bacteria: K. pneumoniae multidrug-resistant; settings: Klebsiella pneumoniae, read-out: Minimal Inhibitory Concentration (MIC) K. pneumoniae multidrug-resistant
[9] = test system: P. aeruginosa ATCC 27853; experiment: MIC, Gram-negative bacteria: P. aeruginosa ATCC 27853; settings: Pseudomonas aeruginosa, ATCC27853, read-out: Minimal Inhibitory Concentration (MIC) P. aeruginosa ATCC 27853
[10] = test system: P. aeruginosa MDR clinical isolate; experiment: MIC, Gram-negative bacteria: P. aeruginosa MDR clinical isolate; settings: Pseudomonas aeruginosa, read-out: Minimal Inhibitory Concentration (MIC) P. aeruginosa MDR clinical isolate
[11] = test system: H. influenzae ATCC 49247; experiment: MIC, Gram-negative bacteria: H. influenzae ATCC 49247; settings: Haemophilus influenzae, ATCC49247, read-out: Minimal Inhibitory Concentration (MIC) H. influenzae ATCC 49247
[12] = test system: Gram-Negative Organisms; experiment: microbe, parasite or virus in culture
[13] = first unnamed S. aureus column (c4)
[14] = fourth unnamed S. aureus column (c8)
[15] = second unnamed S. aureus column (c6)
[16] = third unnamed S. aureus column (c7)
[17] = Acinetobacter baumannii, ATCC19606, read-out: Minimal Inhibitory Concentration (MIC), A. baumannii ATCC 19606
[18] = Escherichia coli, ATCC25922, read-out: Minimal Inhibitory Concentration (MIC), E. coli ATCC 25922
[19] = Escherichia coli, read-out: Minimal Inhibitory Concentration (MIC), E. coli BAS2006, OMP C, OMP F
[20] = Escherichia coli, read-out: Minimal Inhibitory Concentration (MIC), E. coli olC efflux defective
[21] = Escherichia coli, read-out: Minimal Inhibitory Concentration (MIC), E. coli permeability mutant BAS1314, IMP4213ZAB::TN10
[22] = Escherichia coli, read-out: Minimal Inhibitory Concentration (MIC), E. coli ΔompC768, KanR insert
[23] = Klebsiella pneumoniae, ATCC43816, read-out: Minimal Inhibitory Concentration (MIC), K. pneumoniae ATCC 43816

| SMILES | MIC [1] | MIC [2] | MIC [3] | MIC [4, 13] | MIC [4, 14] | MIC [4, 15] | MIC [4, 16] | MIC [6] | MIC [7] | MIC [8] | MIC [9] | MIC [10] | MIC [11] | MIC [12, 17] | MIC [12, 18] | MIC [12, 19] | MIC [12, 20] | MIC [12, 21] | MIC [12, 22] | MIC [12, 23] | further results |
| --- | --- | --- | --- | --- | --- | --- | --- | --- | --- | --- | --- | --- | --- | --- | --- | --- | --- | --- | --- | --- | --- |
| CC1=C\[C@@H](O)CC(=O)Cc2nc(co2)C(=O)N2CCC[C@@H]2C(=O)O[C@H]([C@H](C)COC(=O)Nc2ccccn2)[C@H](C)/C=C/C(=O)NC\C=C\1 [SA0110222] | > 64 µg/mL | 32 µg/mL (≈ 48.2 µM) | 64 µg/mL (≈ 96.4 µM) | > 64 µg/mL | 64 µg/mL (≈ 96.4 µM) | > 64 µg/mL | > 64 µg/mL | > 64 µg/mL | 32 µg/mL (≈ 48.2 µM) | > 64 µg/mL | > 64 µg/mL | > 64 µg/mL | 16 µg/mL (≈ 24.1 µM) | > 64 µg/mL | > 64 µg/mL | 64 µg/mL (≈ 96.4 µM) | 4 µg/mL (≈ 6.03 µM) | 16 µg/mL (≈ 24.1 µM) | > 64 µg/mL | > 64 µg/mL | MIC ([5]; Gram-positive, column 5): > 64 µg/mL |
| CC1=C\[C@@H](O)CC(=O)Cc2nc(co2)C(=O)N2CCC[C@@H]2C(=O)O[C@H]([C@H](C)COC(=O)Nc2ccc3ccccc3n2)[C@H](C)/C=C/C(=O)NC\C=C\1 [SA0110223] | > 64 µg/mL | 4 µg/mL (≈ 5.6 µM) | 16 µg/mL (≈ 22.4 µM) | 8 µg/mL (≈ 11.2 µM) | 4 µg/mL (≈ 5.6 µM) | 8 µg/mL (≈ 11.2 µM) | 16 µg/mL (≈ 22.4 µM) | > 64 µg/mL | 32 µg/mL (≈ 44.8 µM) | > 64 µg/mL | > 64 µg/mL | > 64 µg/mL | 8 µg/mL (≈ 11.2 µM) | > 64 µg/mL | > 64 µg/mL | 16 µg/mL (≈ 22.4 µM) | 2 µg/mL (≈ 2.8 µM) | 2 µg/mL (≈ 2.8 µM) | > 64 µg/mL | > 64 µg/mL | MIC ([5]; Gram-positive, column 5): 32 µg/mL (≈ 44.8 µM) |
| CC1=C\[C@@H](O)CC(=O)Cc2nc(co2)C(=O)N2CCC[C@@H]2C(=O)O[C@H]([C@H](C)COC(=O)Nc2cc(C)on2)[C@H](C)/C=C/C(=O)NC\C=C\1 [SA0110225] | > 64 µg/mL | 32 µg/mL (≈ 47.9 µM) | 64 µg/mL (≈ 95.8 µM) | > 64 µg/mL | 64 µg/mL (≈ 95.8 µM) | 64 µg/mL (≈ 95.8 µM) | > 64 µg/mL | > 64 µg/mL | 32 µg/mL (≈ 47.9 µM) | > 64 µg/mL | > 64 µg/mL | > 64 µg/mL | 16 µg/mL (≈ 24 µM) | > 64 µg/mL | > 64 µg/mL | > 64 µg/mL | 4 µg/mL (≈ 5.99 µM) | 8 µg/mL (≈ 12 µM) | > 64 µg/mL | > 64 µg/mL | MIC ([5]; Gram-positive, column 5): > 64 µg/mL |
| CC(C)[C@H]1OC(=O)[C@H]2CCCN2C(=O)c2coc(n2)CC(=O)C[C@H](O)/C=C/C=C/CNC(=O)/C=C/[C@H]1C [SA0110239] | > 64 µg/mL | > 64 µg/mL | > 64 µg/mL | > 64 µg/mL | > 64 µg/mL | > 64 µg/mL | > 64 µg/mL | > 64 µg/mL | 64 µg/mL (≈ 125 µM) | > 64 µg/mL | > 64 µg/mL | > 64 µg/mL | > 64 µg/mL | > 64 µg/mL | > 64 µg/mL | 64 µg/mL (≈ 125 µM) | 8 µg/mL (≈ 15.6 µM) | 8 µg/mL (≈ 15.6 µM) | > 64 µg/mL | > 64 µg/mL | MIC ([5]; Gram-positive, column 5): > 64 µg/mL |
| CC1=C\[C@@H](O)CC(=O)Cc2nc(co2)C(=O)N2CCC[C@@H]2C(=O)O[C@H]([C@@H](C)CN2CCN(C)CC2)[C@H](C)/C=C/C(=O)NC\C=C\1 [SA0110241] | > 64 µg/mL | > 64 µg/mL | > 64 µg/mL | > 64 µg/mL | > 64 µg/mL | > 64 µg/mL | > 64 µg/mL | > 64 µg/mL | > 64 µg/mL | > 64 µg/mL | > 64 µg/mL | > 64 µg/mL | > 64 µg/mL | > 64 µg/mL | > 64 µg/mL | > 64 µg/mL | > 64 µg/mL | > 64 µg/mL | > 64 µg/mL | > 64 µg/mL | MIC ([5]; Gram-positive, column 5): > 64 µg/mL |
| CC1=C\[C@@H](O)CC(=O)Cc2nc(co2)C(=O)N2CCC[C@@H]2C(=O)O[C@H]([C@@H](C)CN2CCC(N(C)C)CC2)[C@H](C)/C=C/C(=O)NC\C=C\1 [SA0110252] | > 64 µg/mL | > 64 µg/mL | > 64 µg/mL | > 64 µg/mL | > 64 µg/mL | > 64 µg/mL | > 64 µg/mL | > 64 µg/mL | > 64 µg/mL | > 64 µg/mL | > 64 µg/mL | > 64 µg/mL | > 64 µg/mL | > 64 µg/mL | > 64 µg/mL | > 64 µg/mL | > 64 µg/mL | > 64 µg/mL | > 64 µg/mL | > 64 µg/mL | MIC ([5]; Gram-positive, column 5): > 64 µg/mL |
| CC1=C\[C@@H](O)CC(=O)Cc2nc(c([Si](C)(C)C)o2)C(=O)N2CCC[C@@H]2C(=O)O[C@H](C(C)C)[C@H](C)/C=C/C(=O)NC\C=C\1 [SA0110261] | > 64 µg/mL | 64 µg/mL (≈ 107 µM) | > 64 µg/mL | > 64 µg/mL | 64 µg/mL (≈ 107 µM) | 64 µg/mL (≈ 107 µM) | > 64 µg/mL | > 64 µg/mL | 64 µg/mL (≈ 107 µM) | > 64 µg/mL | > 64 µg/mL | > 64 µg/mL | > 64 µg/mL | > 64 µg/mL | > 64 µg/mL | > 64 µg/mL | 64 µg/mL (≈ 107 µM) | 16 µg/mL (≈ 26.7 µM) | > 64 µg/mL | > 64 µg/mL | MIC [5]: > 64 µg/mL |
